# Assay results: publication PMC6300978 (Chemico-biological interactions, 2015)
# Key:
# recombinant human UGT2B7 = biological target: T1, recombinant human UGT2B7 (Homo sapiens, UniProt P16662); experiment: GA glucuronidation by recombinant UGT2B7; assay type: in vitro ADME; conditions: UGT2B7, whole range of substrate concentrations
# T1 sequence (P16662 24-529): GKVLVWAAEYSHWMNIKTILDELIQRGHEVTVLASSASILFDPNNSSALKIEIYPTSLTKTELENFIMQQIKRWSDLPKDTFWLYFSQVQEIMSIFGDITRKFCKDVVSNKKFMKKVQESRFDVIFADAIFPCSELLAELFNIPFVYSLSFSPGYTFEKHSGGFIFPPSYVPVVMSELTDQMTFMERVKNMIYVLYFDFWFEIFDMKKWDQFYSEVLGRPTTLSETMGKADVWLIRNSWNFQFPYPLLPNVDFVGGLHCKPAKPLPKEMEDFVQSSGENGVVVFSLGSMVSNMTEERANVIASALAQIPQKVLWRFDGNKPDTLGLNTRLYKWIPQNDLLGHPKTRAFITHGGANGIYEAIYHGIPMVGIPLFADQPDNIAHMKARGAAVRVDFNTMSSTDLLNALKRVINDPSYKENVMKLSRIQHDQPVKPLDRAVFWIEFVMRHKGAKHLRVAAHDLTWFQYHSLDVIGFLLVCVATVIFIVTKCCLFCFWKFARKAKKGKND
# [1] = GA glucuronidation kinetics in human intestinal microsomes; assay type: in vitro ADME; conditions: for microsomal CLint: human intestinal microsomes
# UGT1A1 = biological target: T2, UGT1A1 (Homo sapiens, UniProt P22309); experiment: GA glucuronidation kinetics by recombinant UGT1A1; assay type: in vitro ADME; conditions: recombinant human UGT1A1, pH 7.4, Clint
# T2 sequence (P22309 26-533): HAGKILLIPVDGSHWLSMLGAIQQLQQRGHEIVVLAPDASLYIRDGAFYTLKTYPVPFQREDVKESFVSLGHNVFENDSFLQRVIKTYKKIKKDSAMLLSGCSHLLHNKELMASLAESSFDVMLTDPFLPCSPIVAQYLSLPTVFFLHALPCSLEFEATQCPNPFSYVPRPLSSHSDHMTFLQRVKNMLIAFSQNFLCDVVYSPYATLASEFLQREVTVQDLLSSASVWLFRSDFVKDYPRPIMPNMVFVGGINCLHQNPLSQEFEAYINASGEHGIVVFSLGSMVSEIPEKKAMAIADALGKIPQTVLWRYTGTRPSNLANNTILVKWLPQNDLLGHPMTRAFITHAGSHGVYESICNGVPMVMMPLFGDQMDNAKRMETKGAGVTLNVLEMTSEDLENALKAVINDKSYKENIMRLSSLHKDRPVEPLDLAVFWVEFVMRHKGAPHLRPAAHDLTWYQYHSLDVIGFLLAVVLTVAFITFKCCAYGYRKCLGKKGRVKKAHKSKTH
# UGT1A8 = biological target: T3, UGT1A8 (Homo sapiens, UniProt Q9HAW9); experiment: GA glucuronidation by recombinant UGT1A8; assay type: in vitro ADME
# T3 sequence (Q9HAW9 26-530): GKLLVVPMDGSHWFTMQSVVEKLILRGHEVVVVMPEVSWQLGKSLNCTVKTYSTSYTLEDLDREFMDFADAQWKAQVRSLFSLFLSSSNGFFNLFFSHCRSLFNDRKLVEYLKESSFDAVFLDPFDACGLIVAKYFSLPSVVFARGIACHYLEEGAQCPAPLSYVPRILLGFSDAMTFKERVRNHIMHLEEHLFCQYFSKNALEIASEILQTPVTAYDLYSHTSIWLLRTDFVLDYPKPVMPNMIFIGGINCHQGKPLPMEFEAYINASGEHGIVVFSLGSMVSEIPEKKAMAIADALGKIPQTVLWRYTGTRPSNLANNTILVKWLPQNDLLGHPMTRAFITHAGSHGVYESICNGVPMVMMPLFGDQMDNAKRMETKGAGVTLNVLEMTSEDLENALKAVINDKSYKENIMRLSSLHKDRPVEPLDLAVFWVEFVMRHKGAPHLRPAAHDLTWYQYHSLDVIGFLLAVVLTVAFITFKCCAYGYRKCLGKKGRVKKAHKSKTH
# [2] = GA glucuronidation kinetics in rat intestinal microsomes; assay type: in vitro ADME, Sprague-Dawley rats
compound,measurement,setting,value
"CC1(C)C=Cc2c(ccc3c2OC[C@@H](c2ccc(O)cc2O)C3)O1 [GA, glabridin]",GA glucuronidation activity,recombinant human UGT2B7,< 0.04 nmol/min/mg
same,Clint of HIM relative to HLM,"[1]; GA glucuronidation, Table 2",more than 100 fold
same,Vmax,"[1]; HIM, M2 formation",16.7 ± 7.4 nmol/min/mg
same,microsomal CLint,"[1]; both, human, pH 7.4, Clint, HIM, M2 formation",2010 µL/min/mg
same,microsomal CLint,"[1]; both, human, pH 7.4, Clint, HIM, M2 formation (text)",2000 µL/min/mg
same,microsomal CLint,"[1]; both, human, pH 7.4, Cltotal, HIM",2010 µL/min/mg
same,Km at 20 min,"[1]; both, human, intestinal microsomes, pH 7.4",8.3 ± 3.5 µM
same,microsomal CLint,"UGT1A1; UGT1A1, M1 formation",22 µL/min/mg
same,microsomal CLint,"UGT1A1; UGT1A1, M2 formation",5 µL/min/mg
same,catalytic activity of UGT1A8 relative to other isoforms,"UGT1A8; 2 µM GA, 0.1 mg/mL recombinant UGTs, 60 min",more than 5 fold
same,KSI,"UGT1A8; UGT1A8, M2 formation",1.7 ± 0.4 µM
same,microsomal CLint,"UGT1A8; human, recombinant UGT1A8, pH 7.4",172 µL/min/mg
same,Clint of UGT1A8 relative to other isoforms,UGT1A8; recombinant UGTs,more than 5 fold
same,KSI,"[2]; RIM, M2 formation",5.3 ± 2.5 µM
same,Vmax,"[2]; RIM, M2 formation",19 ± 6 nmol/min/mg
same,Km at 20 min,"[2]; male, Sprague-Dawley, rat, intestinal microsomes, pH 7.4",3.8 ± 1.1 µM
same,microsomal CLint,"[2]; male, Sprague-Dawley, rat, rat intestinal microsomes, pH 7.4, Cltotal, RIM",5000 µL/min/mg
